Results on 18 compounds are retold here after patent US20250154138A1, “Small Molecule IL-17A Modulators” (BeiGene, Ltd., priority 2022, published 2025).

The target in test [1] is human IL-17A / human IL-17RA (Homo sapiens (Human), UniProt Q16552). The test can be described thus: Human IL-17A biochemical assay (HTRF, blocking of IL-17A binding to IL-17RA). The following applies: 0.4 nM IL-17A, 0.3 nM IL-17RA, max compound concentration 10 uM. The essentials:
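Compounds (10-point, 2.7-fold dilution from 10 uM) preincubated 3 h at RT with 0.4 nM human IL-17A, followed by 1 h with 0.3 nM IL-17RA and 1 h with Tb-cryptate/XL665 antibodies; buffer 20 mM HEPES pH 7.5, 0.1% BSA. Inhibition derived from HTRF fluorescence ratio; IC50 by four-parameter logistic fitting.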

Test [2] deals with IL-17-induced GROα secretion from HT-29 cells. As to the kind of experiment: GROα release assay in human colorectal adenocarcinoma epithelial cell (HT-29, ELISA). It counts as cell-based. Particulars: Homo sapiens, HT-29, 48 h, 10 ng/mL IL-17A, highest concentration 10 μM, read-out: Cellular assay HT29 cell/CXCL1 IC50. The essentials: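 IC50 values come from four-parameter fits of GROα levels, quantified by ELISA (450 nm, standard curve) in supernatants. Compounds, 4-fold serially diluted from 10 μM, were mixed 15 min with IL-17A (10 ng/mL final) before 48 h incubation with HT-29 cells at 37°C.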

Chain of human IL-17A / human IL-17RA (Q16552 24-155): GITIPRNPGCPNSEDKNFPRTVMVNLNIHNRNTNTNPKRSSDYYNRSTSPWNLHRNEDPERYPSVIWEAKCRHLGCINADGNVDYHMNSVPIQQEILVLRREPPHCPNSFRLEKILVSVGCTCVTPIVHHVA

On to `Cc1nonc1C(=O)N[C@H](C(=O)Nc1ccc2c(c1)CC(C(=O)NC1(c3cc(F)ccc3F)CC1)(N1CC3(CC3)CNC1=O)C2)C1CCC(F)(F)CC1` (stereo partly drawn) [Example 233, N-((1S)-1-(4,4-difluorocyclohexyl)-2-((2-((1-(2,5-difluorophenyl)cyclopropyl)carbamoyl)-2-(6-oxo-5,7-diazaspiro[2.5]octan-5-yl)-2,3-dihydro-1H-inden-5-yl)amino)-2-oxoethyl)-4-methyl-1,2,5-oxadiazole-3-carboxamide], for which the results for the IC50 in test [1] and in test [2] were 77.8 nM and 90.1 nM, respectively.

Take `Cc1nonc1C(=O)N[C@H](C(=O)Nc1ccc2c(c1)CC(C(=O)Nc1ccccc1)(N1C[C@@H](C(C)C)NC1=O)C2)C(C1CC1)C1CC1` (stereo partly drawn) [Example 234, N-((2S)-1,1-dicyclopropyl-3-((2-((R)-4-isopropyl-2-oxoimidazolidin-1-yl)-2-(phenylcarbamoyl)-2,3-dihydro-1H-inden-5-yl)amino)-3-oxopropan-2-yl)-4-methyl-1,2,5-oxadiazole-3-carboxamide]: the values for the IC50 in test [1] and in test [2] were 340 nM and 207 nM, respectively.

With `CC(C)[C@@H]1CN(C2(C(=O)Nc3ccccc3)Cc3ccc(NC(=O)[C@@H](NC(=O)c4ccnn4C(C)C)C(C4CC4)C4CC4)cc3C2)C(=O)N1` (stereo partly drawn) [Example 235, N-((2S)-1,1-dicyclopropyl-3-((2-((R)-4-isopropyl-2-oxoimidazolidin-1-yl)-2-(phenylcarbamoyl)-2,3-dihydro-1H-inden-5-yl)amino)-3-oxopropan-2-yl)-1-isopropyl-1H-pyrazole-5-carboxamide], the IC50 in test [1] was 229 nM; in test [2], 214 nM.

As to `Cc1nonc1C(=O)N[C@H](C(=O)Nc1ccc2c(c1)CC(C(=O)Nc1cccc(F)c1)(N1C[C@@H](C(C)C)NC1=O)C2)C(C1CC1)C1CC1` (stereo partly drawn) [Example 236, N-((2S)-1,1-dicyclopropyl-3-((2-((3-fluorophenyl)carbamoyl)-2-((R)-4-isopropyl-2-oxoimidazolidin-1-yl)-2,3-dihydro-1H-inden-5-yl)amino)-3-oxopropan-2-yl)-4-methyl-1,2,5-oxadiazole-3-carboxamide], the IC50 in test [1] came out at 245 nM; in test [2] it was 537 nM.

For the compound `Cn1nccc1C(=O)N[C@H](C(=O)Nc1ccc2c(c1)OC(CN1C[C@@H](C(F)(F)F)NC1=O)C2)C1CCCCC1` (stereo partly drawn) [Example 237, N-((1S)-1-cyclohexyl-2-oxo-2-((2-(((S)-2-oxo-4-(trifluoromethyl)imidazolidin-1-yl)methyl)-2,3-dihydrobenzofuran-6-yl)amino)ethyl)-1-methyl-1H-pyrazole-5-carboxamide], the IC50 stood at 27.1 nM in test [1] and 53.3 nM in test [2].

For `Cc1nonc1C(=O)N[C@H](C(=O)Nc1ccc2c(c1)CC(C(O)C(F)(F)F)(N1C[C@@H](C(C)C)NC1=O)C2)C(C1CC1)C1CC1` (stereo partly drawn) [Example 238, N-((2S)-1,1-dicyclopropyl-3-((2-((R)-4-isopropyl-2-oxoimidazolidin-1-yl)-2-(2,2,2-trifluoro-1-hydroxyethyl)-2,3-dihydro-1H-inden-5-yl)amino)-3-oxopropan-2-yl)-4-methyl-1,2,5-oxadiazole-3-carboxamide], the figures for the IC50 in test [1] and in test [2] were 222 nM and 137 nM, respectively.

Take `Cc1conc1C(=O)N[C@H](C(=O)Nc1ccc2c(c1)CC(N1C[C@@H](C(F)(F)F)NC1=O)C2)C(C1CC1)C1CC1` (stereo partly drawn) [Example 239, N-((2S)-1,1-dicyclopropyl-3-oxo-3-((2-((S)-2-oxo-4-(trifluoromethyl)imidazolidin-1-yl)-2,3-dihydro-1H-inden-5-yl)amino)propan-2-yl)-4-methylisoxazole-3-carboxamide]: the IC50 in test [1] turned out to be 977 nM; in test [2], 3210 nM.

As for `Cn1nccc1C(=O)N[C@H](C(=O)Nc1ccc2oc(CN3C[C@@H](C(F)(F)F)NC3=O)cc2c1)C1CCCCC1` [Example 240, N-((S)-1-cyclohexyl-2-oxo-2-((2-(((S)-2-oxo-4-(trifluoromethyl)imidazolidin-1-yl)methyl)benzofuran-5-yl)amino)ethyl)-1-methyl-1H-pyrazole-5-carboxamide], the IC50 in test [1] was 200 nM; in test [2], 264 nM.

For `Cc1nonc1C(=O)N[C@H](C(=O)Nc1ccc2c(c1)CC(Cc1ccc(F)cc1)(N1C[C@@H](C(C)C)NC1=O)C2)C(C1CC1)C1CC1` (stereo partly drawn) [Example 241, N-((2S)-1,1-dicyclopropyl-3-((2-(4-fluorobenzyl)-2-((R)-4-isopropyl-2-oxoimidazolidin-1-yl)-2,3-dihydro-1H-inden-5-yl)amino)-3-oxopropan-2-yl)-4-methyl-1,2,5-oxadiazole-3-carboxamide], the IC50 came to 2920 nM in test [1] and 5800 nM in test [2].

For the compound `Cc1nonc1C(=O)N[C@H](C(=O)Nc1ccc2c(c1)CC(C(=O)Nc1ccccc1)(N1C[C@@H](C(C)C)NC1=O)C2)C1CCC(F)(F)CC1` (stereo partly drawn) [Example 242, N-((1S)-1-(4,4-difluorocyclohexyl)-2-((2-((R)-4-isopropyl-2-oxoimidazolidin-1-yl)-2-(phenylcarbamoyl)-2,3-dihydro-1H-inden-5-yl)amino)-2-oxoethyl)-4-methyl-1,2,5-oxadiazole-3-carboxamide], the values for the IC50 in test [1] and in test [2] were 250 nM and 652 nM, respectively.

As for `Cc1nonc1C(=O)N[C@H](C(=O)Nc1ccc2c(c1)CC(C(=O)Nc1cccc(F)c1)(N1C[C@@H](C(C)C)NC1=O)C2)C1CCC(F)(F)CC1` (stereo partly drawn) [Example 243, N-((1S)-1-(4,4-difluorocyclohexyl)-2-((2-((3-fluorophenyl)carbamoyl)-2-((R)-4-isopropyl-2-oxoimidazolidin-1-yl)-2,3-dihydro-1H-inden-5-yl)amino)-2-oxoethyl)-4-methyl-1,2,5-oxadiazole-3-carboxamide], the IC50 worked out at 290 nM in test [1] and 317 nM in test [2].

In the case of `COCC1(N2C[C@@H](C(C)C)NC2=O)Cc2ccc(NC(=O)[C@@H](NC(=O)c3nonc3C)C(C3CC3)C3CC3)cc2C1` (stereo partly drawn) [Example 244, N-((2S)-1,1-dicyclopropyl-3-((2-((R)-4-isopropyl-2-oxoimidazolidin-1-yl)-2-(methoxymethyl)-2,3-dihydro-1H-inden-5-yl)amino)-3-oxopropan-2-yl)-4-methyl-1,2,5-oxadiazole-3-carboxamide], the IC50 in test [1] came out at 2130 nM; in test [2] it was 1570 nM.

`COCC1(N2C[C@@H](C(C)C)NC2=O)Cc2ccc(NC(=O)[C@@H](NC(=O)c3ccnn3C)C(C3CC3)C3CC3)cc2C1` (stereo partly drawn) [Example 245, N-((2S)-1,1-dicyclopropyl-3-((2-((R)-4-isopropyl-2-oxoimidazolidin-1-yl)-2-(methoxymethyl)-2,3-dihydro-1H-inden-5-yl)amino)-3-oxopropan-2-yl)-1-methyl-1H-pyrazole-5-carboxamide]: the results for the IC50 in test [1] and in test [2] were 52.4 nM and 92.5 nM, respectively.

As to `Cc1nonc1C(=O)N[C@H](C(=O)Nc1ccc2c(c1)CC(c1cn3ncccc3n1)(N1C[C@@H](C(C)C)NC1=O)C2)C(C1CC1)C1CC1` (stereo partly drawn) [Example 246, N-((2S)-1,1-dicyclopropyl-3-((2-(imidazo[1,2-b]pyridazin-2-yl)-2-((R)-4-isopropyl-2-oxoimidazolidin-1-yl)-2,3-dihydro-1H-inden-5-yl)amino)-3-oxopropan-2-yl)-4-methyl-1,2,5-oxadiazole-3-carboxamide], the results for the IC50 in test [1] and in test [2] were 257 nM and 1220 nM, respectively.

Consider `Cc1nonc1C(=O)N[C@H](C(=O)Nc1ccc2c(c1)CC(N1CC3(CC3)CNC1=O)(C(C)(C)O)C2)C1CCC(F)(F)CC1` (stereo partly drawn) [Example 247, N-((1S)-1-(4,4-difluorocyclohexyl)-2-((2-(2-hydroxypropan-2-yl)-2-(6-oxo-5,7-diazaspiro[2.5]octan-5-yl)-2,3-dihydro-1H-inden-5-yl)amino)-2-oxoethyl)-4-methyl-1,2,5-oxadiazole-3-carboxamide], for which the IC50 in test [1] is 20.9 nM; in test [2] it was 40.8 nM.

Take `CNC(=O)C1(N2C[C@@H](C(C)C)NC2=O)Cc2ccc(NC(=O)[C@@H](NC(=O)c3nonc3C)C(C3CC3)C3CC3)cc2C1` (stereo partly drawn) [Example 248, N-((2S)-1,1-dicyclopropyl-3-((2-((R)-4-isopropyl-2-oxoimidazolidin-1-yl)-2-(methylcarbamoyl)-2,3-dihydro-1H-inden-5-yl)amino)-3-oxopropan-2-yl)-4-methyl-1,2,5-oxadiazole-3-carboxamide]: the IC50 is 126 nM in test [1] and 427 nM in test [2].

Regarding `Cc1nonc1C(=O)N[C@H](C(=O)Nc1ccc2c(c1)CC(C(=O)Nc1ccccc1F)(N1C[C@@H](C(C)C)NC1=O)C2)C1CCC(F)(F)CC1` (stereo partly drawn) [Example 249, N-((1S)-1-(4,4-difluorocyclohexyl)-2-((2-((2-fluorophenyl)carbamoyl)-2-((R)-4-isopropyl-2-oxoimidazolidin-1-yl)-2,3-dihydro-1H-inden-5-yl)amino)-2-oxoethyl)-4-methyl-1,2,5-oxadiazole-3-carboxamide], the IC50 in test [1] stood at 226 nM; in test [2], 695 nM.

For the compound `Cc1nonc1C(=O)N[C@H](C(=O)Nc1ccc2c(c1)CC(c1ccc(F)cc1)(N1C[C@@H](C(C)C)NC1=O)C2)C(C1CC1)C1CC1` (stereo partly drawn) [Example 251, N-((2S)-1,1-dicyclopropyl-3-((2-(4-fluorophenyl)-2-((R)-4-isopropyl-2-oxoimidazolidin-1-yl)-2,3-dihydro-1H-inden-5-yl)amino)-3-oxopropan-2-yl)-4-methyl-1,2,5-oxadiazole-3-carboxamide], the IC50 in test [1] and in test [2] was 1510 nM in each case.
